Reference: the Kinase Knowledgebase extract (Sharma et al. 2016)
pIC50, pKi: −log10 of the molar value.

Assays:
[1] = molecular target: EGFR (UniProt P00533)
[2] = molecular target: EGFR (human) (UniProt P00533); conditions: a431, concentration not given here
[3] = molecular target: MAPK14 (UniProt Q16539); assay: In Vitro p38 Inhibition
[4] = molecular target: EGFR (UniProt P00533); remark: listed apart in the source
[5] = molecular target: EGFR (human) (UniProt P00533); conditions: a431
[6] = molecular target: MAP2K1;MAPK14 (human) (UniProt Q16539); assay: Inhibition of BXPC3 Cell Proliferation by MTT Assay; conditions: bxpc-3 pancreatic
[7] = molecular target: MAP2K1;MAPK14 (human) (UniProt Q16539); assay: Inhibition of LnCAP Cell Proliferation by MTT Assay
[8] = molecular target: MAP2K1;MAPK14 (human) (UniProt Q16539); assay: Inhibition of HT1197 Cell Proliferation by MTT Assay
[9] = molecular target: EGFR (human) (UniProt P00533); conditions: mkn45, concentration not given here
[10] = molecular target: EGFR (human) (UniProt P00533); conditions: f/l herc cells
[11] = molecular target: EGFR (human) (UniProt P00533); conditions: a431; remark: listed apart in the source
[12] = molecular target: EGFR (human) (UniProt P00533); conditions: a431; remark: listed apart in the source
[13] = molecular target: ROCK2 (UniProt O75116); assay: Inhibition of COS cell Derived Rho kinase (ROCKII)
[14] = molecular target: EGFR (human) (UniProt P00533); conditions: A431
[15] = molecular target: EGFR (murine) (UniProt P00533); conditions: f/l-herc
[16] = molecular target: CDK2 (UniProt P24941); assay: Enzyme Assay
[17] = molecular target: CDK2 (UniProt P24941); assay: Enzyme Assay; remark: listed apart in the source
[18] = molecular target: EGFR (UniProt P00533); remark: listed apart in the source
[19] = molecular target: EGFR (human) (UniProt P00533); conditions: a431; remark: listed apart in the source
[20] = molecular target: EGFR (human) (UniProt P00533)
[21] = molecular target: MAP2K1;MAPK14 (human) (UniProt Q16539); assay: Inhibition of LOVO Cell Proliferation by MTT Assay
[22] = molecular target: MAP2K1;MAPK14 (human) (UniProt Q16539); assay: Inhibition of CaCO Cell Proliferation by MTT Assay; conditions: caco-2
[23] = molecular target: EGFR (murine) (UniProt P00533); conditions: nih3t3
[24] = molecular target: EGFR (human) (UniProt P00533); conditions: a431; remark: listed apart in the source
[25] = molecular target: CDK2 (UniProt P24941); assay: Enzyme Assay; remark: listed apart in the source
[26] = molecular target: EGFR (human) (UniProt P00533); conditions: a431; remark: listed apart in the source
[27] = molecular target: CDK2;CDK1 (UniProt P24941); assay: Cell-Based Assay
[28] = molecular target: EGFR (UniProt P00533); remark: listed apart in the source
[29] = molecular target: EGFR (UniProt P00533); remark: listed apart in the source
[30] = molecular target: EGFR (UniProt P00533); remark: listed apart in the source
[31] = molecular target: MAPK14 (UniProt Q16539); assay: p38 Binding Asssy
[32] = molecular target: EGFR (UniProt P00533); remark: listed apart in the source
[33] = molecular target: EGFR (human) (UniProt P00533); conditions: a431; remark: listed apart in the source

Chain of MAP2K1;MAPK14 (human) (Q16539 whole entry, looked up): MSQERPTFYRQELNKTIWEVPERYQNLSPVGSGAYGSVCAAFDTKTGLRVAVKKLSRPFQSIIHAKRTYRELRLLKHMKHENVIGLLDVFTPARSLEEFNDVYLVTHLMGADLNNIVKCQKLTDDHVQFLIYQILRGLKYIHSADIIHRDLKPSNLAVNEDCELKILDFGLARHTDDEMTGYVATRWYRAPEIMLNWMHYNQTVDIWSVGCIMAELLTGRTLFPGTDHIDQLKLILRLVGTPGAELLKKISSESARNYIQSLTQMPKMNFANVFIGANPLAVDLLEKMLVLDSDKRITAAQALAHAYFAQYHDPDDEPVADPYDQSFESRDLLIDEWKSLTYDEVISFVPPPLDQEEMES
Chain of EGFR (P00533 whole entry, looked up): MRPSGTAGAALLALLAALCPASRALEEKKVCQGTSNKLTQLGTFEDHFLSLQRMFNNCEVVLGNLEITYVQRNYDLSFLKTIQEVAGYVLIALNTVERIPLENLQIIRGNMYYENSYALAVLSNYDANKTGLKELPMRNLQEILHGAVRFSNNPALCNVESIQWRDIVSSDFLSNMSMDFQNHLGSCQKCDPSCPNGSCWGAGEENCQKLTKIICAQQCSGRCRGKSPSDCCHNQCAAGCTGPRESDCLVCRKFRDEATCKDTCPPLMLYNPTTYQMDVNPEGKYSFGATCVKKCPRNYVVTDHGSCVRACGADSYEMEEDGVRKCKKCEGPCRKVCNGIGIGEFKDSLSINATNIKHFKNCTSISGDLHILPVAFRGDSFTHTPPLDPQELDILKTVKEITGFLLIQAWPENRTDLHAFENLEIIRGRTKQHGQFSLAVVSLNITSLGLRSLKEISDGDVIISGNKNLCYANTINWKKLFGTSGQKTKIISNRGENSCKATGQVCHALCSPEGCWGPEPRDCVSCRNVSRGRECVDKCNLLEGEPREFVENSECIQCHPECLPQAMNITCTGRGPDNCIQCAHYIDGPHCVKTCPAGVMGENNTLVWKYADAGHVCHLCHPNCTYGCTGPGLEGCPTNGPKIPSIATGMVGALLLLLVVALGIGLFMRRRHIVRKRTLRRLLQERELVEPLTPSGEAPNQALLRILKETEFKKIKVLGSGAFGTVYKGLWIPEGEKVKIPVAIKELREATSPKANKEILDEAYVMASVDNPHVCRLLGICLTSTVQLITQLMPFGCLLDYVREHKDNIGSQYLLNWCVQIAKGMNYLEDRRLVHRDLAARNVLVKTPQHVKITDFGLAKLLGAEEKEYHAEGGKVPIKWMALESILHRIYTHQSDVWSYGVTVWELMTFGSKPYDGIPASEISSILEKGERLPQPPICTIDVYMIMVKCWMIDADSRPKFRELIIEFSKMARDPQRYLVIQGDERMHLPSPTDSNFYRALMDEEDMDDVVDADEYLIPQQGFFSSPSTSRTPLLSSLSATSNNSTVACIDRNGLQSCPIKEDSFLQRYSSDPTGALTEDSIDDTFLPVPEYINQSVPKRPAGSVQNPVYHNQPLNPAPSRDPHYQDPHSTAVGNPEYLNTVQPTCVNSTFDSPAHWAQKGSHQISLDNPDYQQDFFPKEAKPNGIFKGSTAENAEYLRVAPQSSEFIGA
Chain of EGFR (human) (P00533 whole entry, looked up): as above
Chain of MAPK14 (Q16539 whole entry, looked up): as the sequence (Q16539 whole entry, looked up) above
Chain of EGFR (murine) (P00533 whole entry, looked up): as the sequence (P00533 whole entry, looked up) above

**Q.** With `Cn1c(=O)c(-c2c(Cl)cccc2Cl)cc2cnc(Nc3ccccc3)nc21` as the compound, how does the pIC50 [1] read?
**A.** Its pIC50 is 7.11.

**Q.** With `C=CC(=O)Nc1ccc2ncnc(Nc3ccc(Oc4ccccc4)cc3)c2c1` as the compound, how does the activity [2] read?
**A.** Its activity is 0%.

**Q.** How did the activity [2] turn out when `C=CC(=O)Nc1ccc2ncnc(Nc3ccc(OCc4ccccc4)cc3)c2c1` was run?
**A.** The activity was 0%.

**Q.** `O=C(CNS(=O)(=O)c1ccc(CNC(=O)c2ccc(Cl)cc2)s1)NCCNc1ccc(C(F)(F)F)cn1` was tested. Which pIC50 [3] did it give?
**A.** Its pIC50 is less than 4.52.

**Q.** `CO[C@@H](C#CC(=O)Nc1ccc2ncc(C#N)c(Nc3cccc(Br)c3)c2c1)CN1CCCC1` was tested. Which pIC50 [4] did it give?
**A.** The pIC50 was 6.82.

**Q.** And the pIC50 [5]?
**A.** Its pIC50 is 5.92.

**Q.** `COc1cc2c(Nc3ccc(Sc4nccn4C)c(Cl)c3)c(C#N)cnc2cc1OCCCN1CCOCC1` was tested. Which pIC50 [6] did it give?
**A.** The pIC50 was 7.54.

**Q.** And the pIC50 [7]?
**A.** The pIC50 was 7.40.

**Q.** What about the pIC50 [8] of the same compound?
**A.** Its pIC50 is 7.30.

**Q.** With `Nc1c2c(nc3ccccc13)-c1cccnc1CC2` as the compound, how does the cell viability [9] read?
**A.** Its cell viability is greater than 90%.

**Q.** `CCC(=O)CN(C)C/C=C/C(=O)Nc1cc2c(N[C@H](C)c3ccccc3)ncnc2cc1OC` was tested. Which pIC50 [10] did it give?
**A.** The pIC50 was 8.05.

**Q.** How did the pIC50 [11] turn out when `COc1cc2ncnc(N[C@H](CO)c3ccccc3)c2cc1OC` was run?
**A.** Its pIC50 is 6.10.

**Q.** And the pIC50 [12]?
**A.** The pIC50 was less than 5.81.

**Q.** `CC(N)[C@H]1CC[C@H](C(=O)Nc2ccnc3[nH]ccc23)CC1` (some centres not stated) was tested. Which pIC50 [13] did it give?
**A.** The pIC50 was 7.32.

**Q.** Which results are given for `COc1cc2ncnc(N[C@H](COC(C)=O)c3ccccc3)c2cc1OC`?
**A.** pIC50 [11]: 5.88; pIC50 [12]: 5.28

**Q.** How did the pIC50 [14] turn out when `Cc1nnc(-c2ccc3ncnc(Nc4ccc(OCc5cc(F)cc(F)c5)cc4)c3c2)o1` was run?
**A.** Its pIC50 is 8.05.

**Q.** How did the pIC50 [15] turn out when `O[C@H]1CC[C@H](Nc2ncc3ncnc(Nc4ccc5c(c4)-c4ccccc4C5)c3n2)CC1` was run?
**A.** The pIC50 was less than 5.00.

**Q.** For `Nc1c2ccccc2nc2c1ccc1ncccc12`, which cell viability [9] is on record?
**A.** The cell viability was greater than 90%.

**Q.** `Cn1c2ccccc2c2cc[n+]3c(c21)C(=O)c1ccccc1-3` was tested. Which pIC50 [16] did it give?
**A.** The pIC50 was less than 4.00.

**Q.** What about the pIC50 [17] of the same compound?
**A.** The pIC50 was less than 4.00.

**Q.** `Brc1cccc(Nc2ncnc3cc4[nH]cc(CNN5CCOCC5)c4cc23)c1` was tested. Which pIC50 [18] did it give?
**A.** The pIC50 was 8.32.

**Q.** What about the pIC50 [19] of the same compound?
**A.** Its pIC50 is 8.02.

**Q.** How did the pIC50 [20] turn out when `CCn1c(=O)c(-c2c(Cl)cccc2Cl)cc2cnc(Nc3ccncc3)nc21` was run?
**A.** The pIC50 was 6.60.

**Q.** `COc1cc2c(Nc3ccc(Sc4nccn4C)c(Cl)c3)c(C#N)cnc2cc1OCCC[N+]1([O-])CCSCC1` was tested. Which pIC50 [21] did it give?
**A.** Its pIC50 is 7.44.

**Q.** And the pIC50 [22]?
**A.** The pIC50 was less than 6.00.

**Q.** With `NS(=O)(=O)c1ccc2c(c1)/C(=C/C1=CC3=C(CCCC3)C1)C(=O)N2` as the compound, how does the pIC50 [23] read?
**A.** Its pIC50 is less than 4.00.

**Q.** With `Oc1ccc2ncnc(Nc3cccc(Br)c3)c2c1` as the compound, how does the pKi [24] read?
**A.** The pKi was 10.60.

**Q.** `N#Cc1cnc2ccc(NC(=O)C#CCN3CCSCC3)cc2c1Nc1cccc(Br)c1` was tested. Which pIC50 [5] did it give?
**A.** Its pIC50 is 7.00.

**Q.** `O=C1c2ccccc2-[n+]2ccc3c([nH]c4ccccc43)c21` was tested. Which pIC50 [16] did it give?
**A.** The pIC50 was less than 4.30.

**Q.** And the pIC50 [17]?
**A.** Its pIC50 is less than 4.30.

**Q.** And the pIC50 [25]?
**A.** The pIC50 was less than 3.60.

**Q.** How did the pIC50 [26] turn out when `CNC(=O)c1ccc(S(=O)(=O)Oc2ccc(/C=C/[N+](=O)[O-])cc2)cc1` was run?
**A.** The pIC50 was 4.43.

**Q.** `Cn1c(=O)c(-c2c(Cl)cccc2Cl)cc2cnc(Nc3cccc(Br)c3)nc21` was tested. Which pIC50 [20] did it give?
**A.** Its pIC50 is 6.51.

**Q.** With `Nc1cc(OCC2CCCCC2)nc(N)n1` as the compound, how does the GI50 [27] read?
**A.** The GI50 was greater than 100 µM.

**Q.** How did the pIC50 [28] turn out when `Cc1cc(C)c(N(C)C)c(C)c1Cc1nc(-c2ccncc2)c(-c2ccc(Cl)cc2)[nH]1` was run?
**A.** The pIC50 was 7.30.

**Q.** With `CC(C)N(CCC(=O)c1ccc2ccccc2c1)Cc1ccccc1` as the compound, how does the pIC50 [29] read?
**A.** The pIC50 was 5.50.

**Q.** With `N#C/C(=C\c1ccc(O)c(O)c1)C(=O)NCCCCc1ccccc1` as the compound, how does the pIC50 [30] read?
**A.** Its pIC50 is 5.30.

**Q.** With `Oc1ccc2c(Nc3cccc(Br)c3)ncnc2c1` as the compound, how does the pKi [24] read?
**A.** The pKi was 9.77.

**Q.** With `[N-]=[N+]=Nc1ccc(-c2nc(-c3cccc(I)c3)c(-c3ccncc3)[nH]2)cc1` as the compound, how does the pIC50 [31] read?
**A.** Its pIC50 is 6.19.

**Q.** With `N#C/C(=C\c1ccc(O)c(O)c1)C(N)=O` as the compound, how does the pIC50 [32] read?
**A.** The pIC50 was less than 3.00.

**Q.** And the pKi [33]?
**A.** Its pKi is 5.46.
